In patent publication US9974745B2, “Encochleation methods, cochleates and methods of use” (RUTGERS, THE STATE UNIVERSITY OF NEW JERSEY, priority 2003, dated 2018):
Each block holds one molecule with its values, some of them ahead of it.

Legend:
[1] = tested on: SKOV3 cells; assay: Interaction of ZnTPP-cochleates with SKOV3 cells, confocal fluorescence; type: cell-based
Source text: Phase contrast light microscopy and confocal microscopy (Olympus) was used to image liposomal suspensions, cochleates and cells, with and without the aid of fluorescence, which can be used, e.g., to study cellular uptake and intracellular distribution of fluorescently labeled cochleates and cargo moieties. Confocal microscopy is particularly advantageous as it is a 3-dimensional digital imaging device that can be used to effectively view slices of cell culture. This allows verification of the presence of cochleate and other agents within a cell.
In order to study any interaction of the cochleates with cells, ZnTPP-cochleates and free ZnTPP (in solution with DMSO) were introduced to SKOV3 cell cultures, and imaged with fluorescence under a confocal microscope.
Cochleates were prepared with and without ZnTPP as described above, except that prior to introduction of the ZnTPP/solvent, liposomes were formed with 1% diolyl phosphatidylethanolamine (DOPE) liganded to pyrene (purchased Avanti). The DOPE was incorporated into the soy PS liposomes by dissolving both DOPE and lipid in solvent, drying the solvent to a film, and using an aqueous solution to form liposomes. Confocal images were taken at 1 and 24 hours after introduction to SKOV3 cells to study the uptake and any difference in the cellular distribution of cochleate/lipid and the ZnTPP. […]

[2] = HPLC stability of TY in cochleates versus free TY in solution; type: physicochemical
Source text: HPLC was used to study the stability of the TY in the cochleates, by measuring the concentration of TY in TY-cochleates as compared to free, i.e., unencochleated TY in solution.

[3] = tested on: stomachs of rats; assay: Gastric irritation (bleeding and ulcerations) in rats; type: in vivo, rat; details: stomachs examined 4 hours post carrageenan injection; samples 2, 3, 7 and 9
Procedure: A carrageenan model was employed to study the effect of anti-inflammatory cochleates on edema in rat paws. Various aspirin cochleates of the invention were used to treat carrageenan-induced rat paw edema. […] Additionally, rats in all groups were examined for gastric irritation.
Samples 6-10 were prepared in accordance with Example 16, except that the lipid:aspirin molar ratio was 5:1 and soy PS was used instead of DOPS. Samples 4, 5, and 11 were prepared in a similar manner in the absence of a cargo moiety. In all cases, water was used in lieu of TES buffer. All samples were given by oral gavage at 1 hour prior to injection of carrageenan on Day 0 in a volume of 3 mL of 0.5% methylcellulose. […] Volumes of rat paw (in ml) were measured prior to carrageenan injection using a semi-automated plethysmograph (Buxco). At 0 time, 0.1 ml of 1% carrageenan in 0.9% pyrogen free saline was injected into the right hind paw of the rat. The paw volumes (in ml) were measured again 3 hours post carrageenan injection to determine inhibition of paw edema. Four rats from each of groups 2, 3, 6, 7, 8, 9 and 10 and one rat from each of groups 1, 4, 5 and 11 were bled (intravenously, jugular vein, approximately 1 ml blood) at 30 minutes and 4 hours post drug administration. Blood was collected in heparinized vacutainers. […]

SMILES: C1=Cc2nc1c(-c1ccccc1)c1ccc([n-]1)c(-c1ccccc1)c1nc(c(-c3ccccc3)c3ccc([n-]3)c2-c2ccccc2)C=C1.[Zn+2] [free ZnTPP, Zinc Tetra-Phenyl Porphyrin]
degradation of ZnTPP in SKOV3 cell culture ([1]; at 24 hours): significant degradation
uptake by SKOV3 cells ([1]; confocal fluorescence images at 1 hour and 24 hours): high uptake

concentration of degradation products (impurity 1 and impurity 2) over time [2]: degraded over time
TY concentration over time (stability) ([2]; cochleates versus free TY in solution): decreased to zero
SMILES: COc1cc(/C=C(\C#N)C(N)=O)cc(CSc2nc3ccccc3s2)c1O [free TY, Tyrphostin AG-825]

SMILES: COc1ccc2c(c1)c(CC(=O)O)c(C)n2C(=O)c1ccc(Cl)cc1 [indomethacin]
incidence and level of severity of gastric irritation [3]: greatest gastric irritation

SMILES: CC(=O)Oc1ccccc1C(=O)O [unencochleated aspirin, aspirin]
incidence and level of severity of gastric irritation [3]: greatest gastric irritation, followed by unencochleated aspirin
